Assay results reported in patent publication US11414424B2, “Cardiac sarcomere inhibitors” (Cytokinetics, Inc., priority 2018, dated 2022).

Tested on: bovine cardiac myofibrils
Assay: Myofibril assay: PK/LDH-coupled steady-state ATPase activity of skinned bovine cardiac myofibrils
Assay type: biochemical
Settings: Ca2+ activating to 75% of maximal rate
Procedure, shortened: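 Steady-state ATPase of detergent-skinned bovine left-ventricular myofibrils (1 mg/mL), PK/LDH-coupled NADH read at 340 nm, in PIPES/MgCl2 buffer pH 6.8 with 50 μM ATP, 0.6 mM EGTA and CaCl2 set for 50% or 75% activation. Inhibition of activity measured.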

| CDMF75 IC15 | SMILES |
| --- | --- |
| 0.8 µM | C#Cc1ccc(N2CC(=O)N(Cc3ccc(C4(C(F)(F)F)N=N4)cc3)C3(CN(C(=O)NC)C3)C2=O)c(F)c1 [Compound 178, 8-(4-ethynyl-2-fluoro-phenyl)-N-methyl-6,9-dioxo-5-(4-(3-(trifluoromethyl)-3H-diazirin-3-yl)benzyl)-2,5,8-triazaspiro[3.5]nonane-2-carboxamide] |
| 17.0 µM | CC(=O)N1CC(CC2C(=O)N(c3ncc(Cl)cc3F)CC(=O)N2Cc2ccc(C(F)(F)F)cc2)C1 (centres unmarked) [Compound 661, 3-((1-acetylazetidin-3-yl)methyl)-1-(5-chloro-3-fluoropyridin-2-yl)-4-(4-(trifluoromethyl)benzyl)-piperazine-2,5-dione] |
| 0.2 µM | CNC(=O)c1ccc(N2CC3(C2)C(=O)N(c2ccc(C#N)cc2F)CC(=O)N3Cc2ccc(C(F)(F)F)cc2)cc1NC [Compound 542, 4-(8-(4-cyano-2-fluoro-phenyl)-6,9-dioxo-5-(4-(trifluoromethyl)benzyl)-2,5,8-triazaspiro[3.5]nonan-2-yl)-N-methyl-2-(methylamino)benzamide] |
| 0.6 µM | CC(C)[C@H]1C(=O)N(c2ccc(C#N)cc2F)CC(=O)N1Cc1ccc(C(F)(F)F)cc1 [Compound 283, (S)-3-fluoro-4-(3-isopropyl-2,5-dioxo-4-(4-(trifluoromethyl)benzyl)-piperazin-1-yl)benzonitrile] |
| 10.8 µM | CCNC(=O)N1CCC2(C1)C(=O)N(C(C)C)CC(=O)N2Cc1ccc(Cl)cc1 (centres unmarked) [Compound 119, 6-(4-chlorobenzyl)-N-ethyl-9-isopropyl-7,10-dioxo-2,6,9-triazaspiro[4.5]-decane-2-carboxamide] |
| 1.8 µM | CNC(=O)N1CC2(C1)C(=O)N(c1ccc3oc(=O)ccc3c1)CC(=O)N2Cc1ccc(C(F)(F)F)cc1 [Compound 177, N-methyl-6,9-dioxo-8-(2-oxo-2H-chromen-6-yl)-5-(4-(trifluoromethyl)benzyl)-2,5,8-triazaspiro[3.5]-nonane-2-carboxamide] |
| 2.2 µM | CC(=O)N1CC2(C1)C(=O)N(c1ncc(Cl)cc1F)CC(=O)N2[C@@H](C)c1ccc(C(F)(F)F)cc1 [Compound 570, (S)-2-acetyl-8-(5-chloro-3-fluoropyridin-2-yl)-5-(1-(4-(trifluoromethyl)phenyl)-ethyl)-2,5,8-triazaspiro-[3.5]nonane-6,9-dione] |
| 5.4 µM | CC(=O)N1CC2(C1)C(=O)N(c1ccc(Cl)cc1F)C(C)C(=O)N2Cc1ccc(C(F)(F)F)cc1 (centres unmarked) [Compound 341, 2-acetyl-8-(4-chloro-2-fluorophenyl)-7-methyl-5-(4-(trifluoromethyl)benzyl)-2,5,8-triazaspiro[3.5]nonane-6,9-dione] |
| 4.0 µM | COc1cnc(N2CC(=O)N(Cc3ccc(C(F)(F)F)cc3)C(C3COC3)C2=O)c(F)c1 (single isomer, unassigned) [Compound 703A, 1-(3-fluoro-5-methoxypyridin-2-yl)-3-(oxetan-3-yl)-4-(4-(trifluoromethyl)benzyl)piperazine-2,5-dione] |
| 6.0 µM | C[C@@H]1C(=O)N(c2ccc(Cl)cc2F)CC(=O)N1Cc1ccc(C(F)(F)F)cc1 [Compound 275, (R)-1-(4-chloro-2-fluoro-phenyl)-3-methyl-4-(4-(trifluoromethyl)benzyl)-piperazine-2,5-dione] |
| 1.9 µM | CC(C)N1CC(=O)N(Cc2ccc(Cl)cc2)C2(CN(c3cccnc3)C2)C1=O [Compound 7, 5-(4-chlorobenzyl)-8-isopropyl-2-(pyridin-3-yl)-2,5,8-triazaspiro[3.5]-nonane-6,9-dione] |
| 0.9 µM | Cc1cc(Cl)cnc1N1CC(=O)N(Cc2ccc(F)cc2)C2(CN(c3ccc(C#N)cn3)C2)C1=O [Compound 887, 6-(8-(5-chloro-3-methyl-pyridin-2-yl)-5-(4-fluoro-benzyl)-6,9-dioxo-2,5,8-triazaspiro[3.5]nonan-2-yl)nicotinonitrile] |
| 13.8 µM | Cc1ccc(CN2C(=O)CN(c3ncc(Cl)cc3C)C(=O)C2C2COC2)cc1F (centres unmarked) [Compound 724, 1-(5-chloro-3-methyl-pyridin-2-yl)-4-(3-fluoro-4-methylbenzyl)-3-(oxetan-3-yl)piperazine-2,5-dione] |
| 4.4 µM | CC(C)N1CC(=O)N(C(C)c2ccc(C(F)(F)F)cc2)C2(CN(c3ccccc3)C2)C1=O (centres unmarked) [Compound 140, 8-isopropyl-2-phenyl-5-(1-(4-(trifluoromethyl)phenyl)-ethyl)-2,5,8-triazaspiro-[3.5]nonane-6,9-dione] |
| 0.9 µM | O=C1[C@H](C2CCC2)N(Cc2ccc(C(F)(F)F)cc2)C(=O)CN1c1ncc(Cl)cc1F [Compound 555, (S)-1-(5-chloro-3-fluoro-pyridin-2-yl)-3-cyclobutyl-4-(4-(trifluoromethyl)-benzyl)piperazine-2,5-dione] |
| 25.5 µM | CNC(=O)N1CCC2(C1)C(=O)N(c1ccc(C#N)nc1)CC(=O)N2Cc1ccc(C(F)(F)F)cc1 (centres unmarked) [Compound 184, 9-(6-cyanopyridin-3-yl)-N-methyl-7,10-dioxo-6-(4-(trifluoromethyl)benzyl)-2,6,9-triazaspiro[4.5]-decane-2-carboxamide] |

| CDMF75 IC15 | SMILES |
| --- | --- |
| 1.7 µM | CSCCC1C(=O)N(c2ncc(Cl)cc2F)CC(=O)N1Cc1ccc(C(F)(F)F)cc1 (centres unmarked) [Compound 610, 1-(5-chloro-3-fluoropyridin-2-yl)-3-(2-(methylthio)-ethyl)-4-(4-(trifluoro-methyl)-benzyl)piperazine-2,5-dione] |
| 3.8 µM | CC(C)N1CC(=O)N(Cc2ccc(Cl)cc2)C2(CCN(c3cccnn3)C2)C1=O (centres unmarked) [Compound 79, 6-(4-chlorobenzyl)-9-isopropyl-2-(pyridazin-3-yl)-2,6,9-triazaspiro[4.5]-decane-7,10-dione] |
| 5.1 µM | CC(C)N1CC(=O)N(Cc2ccc(Cl)cc2)C2(CN(c3ccc(C#N)cn3)C2)C1=O [Compound 63, 6-(5-(4-chlorobenzyl)-8-isopropyl-6,9-dioxo-2,5,8-triazaspiro[3.5]nonan-2-yl)nicotinonitrile] |
| 12.2 µM | CNC(=O)N1CC(C2C(=O)N(c3ncc(Cl)cc3F)CC(=O)N2Cc2ccc(C(F)(F)F)cc2)C1 (centres unmarked) [Compound 641, 3-(4-(5-chloro-3-fluoro-pyridin-2-yl)-3,6-dioxo-1-(4-(trifluoromethyl)-benzyl)piperazin-2-yl)-N-methylazetidine-1-carboxamide] |
| 0.2 µM | COC(=O)[C@H]1C[C@]2(C1)C(=O)N(c1ccc(C#N)cc1F)CC(=O)N2Cc1ccc(Cl)cc1 (single isomer, unassigned) [Compound 488B] |
| 2.9 µM | O=C1C(C2COC2)N(Cc2ccc(F)cc2)C(=O)CN1c1ncc(Br)cc1F (centres unmarked) [Compound 707, 1-(5-bromo-3-fluoropyridin-2-yl)-4-(4-fluorobenzyl)-3-(oxetan-3-yl)piperazine-2,5-dione] |
| 5.5 µM | CC(=O)N1CC2(C1)C(=O)N(c1ncc(C#N)cc1C)CC(=O)N2Cc1ccc(C(F)(F)F)cc1 [Compound 529, 6-(2-acetyl-6,9-dioxo-5-(4-(trifluoromethyl)benzyl)-2,5,8-triazaspiro[3.5]nonan-8-yl)-5-methylnicotinonitrile] |
| 9.3 µM | Cc1cc(N2CC3(C2)C(=O)N(C(C)C)CC(=O)N3Cc2ccc(Cl)cc2)cc(C)n1 [Compound 49, 5-(4-chlorobenzyl)-2-(2,6-dimethylpyridin-4-yl)-8-isopropyl-2,5,8-triazaspiro[3.5]nonane-6,9-dione] |
| 2.0 µM | CNC(=O)N1CC2(C1)C(=O)N(c1ccc(OC(F)F)c(F)c1)CC(=O)N2Cc1ccc(C(F)(F)F)cc1 [Compound 171, 8-(4-(difluoromethoxy)-3-fluorophenyl)-N-methyl-6,9-dioxo-5-(4-(trifluoromethyl)benzyl)-2,5/8-triazaspiro[3.5]-nonane-2-carboxamide] |
| 2.2 µM | O=C1C([C@H]2C[C@@H](O)C2)N(Cc2ccc(C(F)(F)F)cc2)C(=O)CN1c1ncc(Cl)cc1F (some centres unmarked) [Compound 739, 1-(5-chloro-3-fluoropyridin-2-yl)-3-((1 s,3s)-3-hydroxycyclobutyl)-4-(4-(trifluoromethyl)benzyl)piperazine-2,5-dione] |
| 3.4 µM | Cc1cc(Cl)cnc1N1CC(=O)N(Cc2ccc(Cl)c(F)c2)C(C2COC2)C1=O (centres unmarked) [Compound 730, 4-(4-chloro-3-fluoro-benzyl)-1-(5-chloro-3-methylpyridin-2-yl)-3-(oxetan-3-yl)-piperazine-2,5-dione] |
| 33.3 µM | CC(C)N1CC(=O)N(Cc2ccccc2)C(c2ccc(Cl)cc2)C1=O (centres unmarked) [Compound 294, 4-benzyl-3-(4-chlorophenyl)-1-isopropylpiperazine-2,5-dione] |
| 11.2 µM | CC(C)N1CC(=O)N(Cc2ccc(Cl)cc2)C2(CCN(C(=O)Nc3ccccc3)C2)C1=O (centres unmarked) [Compound 123, 6-(4-chlorobenzyl)-9-isopropyl-7,10-dioxo-N-phenyl-2,6,9-triazaspiro-[4.5]decane-2-carboxamide] |
| 0.3 µM | COC(=O)c1cccc(N2CC3(C2)C(=O)N(c2ccc(C#N)cc2F)CC(=O)N3Cc2ccc(C(F)(F)F)cc2)c1 [Compound 533, methyl 3-(8-(4-cyano-2-fluorophenyl)-6,9-dioxo-5-(4-(trifluoromethyl)benzyl)-2,5,8-triazaspiro[3.5]nonan-2-yl)benzoate] |
| 1.4 µM | CNC(=O)N1CC2(C1)C(=O)N(c1ccc(-c3noc(C(F)F)n3)cc1)CC(=O)N2Cc1ccc(C(F)(F)F)cc1 [Compound 165, 8-(4-(5-(difluoromethyl)-1,2,4-oxadiazol-3-yl)-phenyl)-N-methyl-6,9-dioxo-5-(4-(trifluoromethyl)-benzyl)-2,5,8-triazaspiro-[3.5]nonane-2-carboxamide] |

| SMILES | CDMF75 IC15 |
| --- | --- |
| N#Cc1ccc(N2CC(=O)N(Cc3ccc(C(F)(F)F)cc3)C3(CN(CC(F)F)C3)C2=O)cc1F [Compound 193, 4-(2-(2,2-difluoroethyl)-6,9-dioxo-5-(4-(trifluoromethyl)benzyl)-2,5,8-triazaspiro[3.5]nonan-8-yl)-2-fluorobenzonitrile] | 1.7 µM |
